The record followed here is patent US12691183B2, “Methods of making and using nanoparticles for treatment of bacterial biofilm” (Brown University, priority 2022, dated 2026).

Where a name gives a salt, the structure may show the parent alone.

In data set [1] the test system is V. vulnificus biofilm. As to the kind of experiment: Eradication of mature biofilm, crystal violet assay. Type of data set: cell-based. The settings on record: reduces initial biomass of 48 h mature biofilm by 90%, 24 h treatment. The protocol: Unless otherwise noted, all biofilm experiments utilized the following procedure for the formation of a 48 h matured biofilm. V. vulnificus inoculated LB medium was incubated for 18 h with shaking (100 rpm) at 37° C. This bacteria suspension was dilute 1:500 (v/v) in LB media supplemented with 2% w/v NaCl (LB S) at pH 5.5. The optical density of the bacteria suspension at 600 nm (OD600) was monitored overtime. Once in its logarithmic growth phase (OD600=0.1, which is ~1.5×10^7 CFU/mL), biofilms were formed by static incubation of bacteria at 37° C. for 48 hours either in chamber slides of multi-well plates. Every 24 hours, the biofilms were gently washed three times with 1×PBS and add fresh LBS was added.
(§1) The effect of treatment with free Doxy, Doxy-GNP, CS-Doxy-GNP, and HA-CS-Doxy-GNP of 48 h aged V. vulnificus biofilms was assessed by examining biofilm morphology and quantifying biomass and cell viability. Morphology assessment via ESEM, LIVE/DEAD viability staining, colony enumeration and crystal violet staining were performed after incubation of the biofilms with the various treatment groups at a Doxy concentration of 50 μg/mL in 1×PBS or with a 1×PBS control for 24 hours at 37° C.
Biofilm biomass was assessed for 48 h mature biofilms formed in 96-well plates. […] Following 24 hours of incubation, the biofilm biomass was quantified using crystal violet staining as described earlier.

The subject of data set [2] is V. vulnificus biofilm. As to the kind of experiment: Inhibition of biofilm formation, crystal violet staining. It is filed as cell-based. The settings on record: inhibits biofilm formation by 80%, 24-hour incubation. How it is done: The investigate the effect of free Doxy and Doxy-loaded NPs on V. vulnificus biofilm formation, V. vulnificus was prepared for biofilm formation. When adding the bacteria in its logarithmic growth phase to 96-well plates, free Doxy or Doxy-loaded NPs were added simultaneously at varying concentrations. Bacteria lacking Doxy treatment were included as a PC and LBS without bacteria was included as a NC. Following a 24-hour incubation in static conditions, the biofilm biomass was quantified using crystal violet staining. Briefly, the supernatant media was gently removed, and biofilms were washed three times with 1×PBS. Next biofilms were stained with 200 μL 0.1% (w/v) crystal violet in 1×PBS for 15 minutes, followed by three 1×PBS washes. The stain was eluted by incubation with 200 μL of 100% ethanol with shaking (100 rpm) for 2 min at RT. The absorbance at 570 nm (OD570) was measured using a plate reader. Normalized biofilm biomass was calculated as follows: [formula]

Data set [3] concerns V. vulnificus. As to the kind of experiment: MIC microdilution assay against planktonic bacteria. The settings on record: Vibrio vulnificus, 16-18 hours, Doxy or loaded Doxy concentration. Type of data set: cell-based. The protocol:
The minimum inhibitory concentrations (MICs) of NPs against V. vulnificus were determined using the microdilution assay as previously reported. See T. Gwisai, N. R. Hollingsworth, S. Cowles, N. Tharmalingam, E. Mylonakis, B. B. Fuchs and A. Shukla, Biomedical Materials, 2017, 12, 045010; D. Alkekhia and A. Shukla, Journal of Biomedical Materials Research Part A, 2019, 107, 1324-1339. Free Doxy and Doxy loaded NPs were diluted 2-fold in LB in 96-well plates to obtain concentrations of Doxy or loaded Doxy ranging from 0.03-4.0 μg/mL. V. vulnificus in LB media in its logarithmic growth phase was added to each well at a final concentration of 1×10^5 colony forming units (CFU)/mL. Positive control (PC) of bacteria cultured in LB only and negative control (NC) of LB without bacteria were included. After 16-18 hours of shaking (100 rpm) at 37° C., OD600 was measured using a plate reader. The normalized bacteria density (%) was calculated as follows: […]

For the next data set, the system named is NIH 3T3 cells. As to the kind of experiment: CCK-8 cytotoxicity assay, NIH 3T3. Type of data set: cell-based, mouse. The settings on record: NIH 3T3, 50 μg/mL Doxy, 24 hour. How it is done:
(§2) The cytotoxicity of each NP formulation was evaluated for HUVEC and […] using a CCK-8 viability assay. Briefly, HUVEC and NIH 3T3 cells were cultured at a density of ~5000 cells/cm^2 in EGM-2 endothelial cell growth medium and DMEM supplemented with 10% (v/v) FBS and 1% (v/v) penicillin/streptomycin, respectively at 37° C. with 5% CO2. After 24 hours, cells were treated with Doxy, Doxy-GNPs, CS-Doxy-GNP and HA-CS-Doxy-GNP at a Doxy concentration of 50 μg/mL in the respective media. Cells treated with media only and wells containing no cells or NPs were included as PCs and NCs, respectively. Following a 24 hour incubation, the media was removed, cells were rinsed with 1×PBS three times and 10 μL of CCK-8 solutions was added to each well. After incubation for 4 hours at 37° C. with 5% CO2, the absorbance was read at 450 nm (OD450) using a plate reader. Normalized cell viability was calculated using the following equation. [formula]
In general terms: Formazan colour is commonly taken as a measure of viable cells.

Data set [4] concerns V. vulnificus. As to the kind of experiment: Ex vivo pig skin infection model. It is filed as cell-based. How it is done:
Frozen porcine skin tissue was thawed and washed with 1×PBS. A biopsy punch (8 mm) was used to create tissue sections from freshly thawed tissue. A 1.5-mm deep well was created in the center of each of these skin samples using a smaller 3-mm biopsy punch. The tissue pieces were sterilized by immersing in 70% (v/v) ethanol for 2 hours and drying for 30 minutes in a CellGard™ Energy Saver class II, type A2 biosafety cabinet (NuAire, Plymouth, MN). The sterile tissue was then placed on soft TSB agar plates containing 0.5% (w/v) agar with 100 μg/mL vancomycin. Note that vancomycin was included as a common antibiotic against gram-positive to prevent contamination by non-V. vulnificus bacteria. The skin was then infected by adding 10 μL of V. vulnificus suspension (OD600=0.1) in the 3 mm diameter well in each sample. The inoculated skin pieces were incubated for 48 hours at 37° C. in a humidified chamber. The tissue samples were transferred to a new agar plate every 24 hours. At 48 hours, 15 μL of Doxy or HA-CS-Doxy-GNP at a Doxy concetration of 10, 50 or 100 μg/mL was added to the infected skin samples and incubated for a further 24 hours. Controls of tissue inoculated with bacteria treated with LBS at pH 5.5 only and tissue without bacteria treated with LBS at pH 5.5 were included as controls. […]

Data set [5] has as its system V. vulnificus biofilm. As to the kind of experiment: Colony counting assay of treated mature biofilm. Type of data set: cell-based. The settings on record: 50 μg/mL Doxy, 24 h. The protocol:
as §1, with “C. Colony enumeration was also conducted by first dispersing biofilms formed in 48-well plates by sonication following treatment. Each sample was then serially diluted in LB, and […] of the dilution was plated onto LB agar plates. Agar plates were imaged and CFU were counted following incubation for 24 h at 37° C.” for “C.”

In another data set the test system is HUVEC. As to the kind of experiment: CCK-8 cytotoxicity assay, HUVEC. The settings on record: 50 μg/mL Doxy, 24 hour. Type of data set: cell-based, human. How it is done: as §2

For `C[C@H]1c2cccc(O)c2C(=O)C2=C(O)[C@]3(O)C(=O)C(C(N)=O)=C(O)[C@@H](N(C)C)[C@@H]3[C@@H](O)[C@@H]21` [Doxy, doxycycline hydrochloride], the MBEC90 entry in the data set on V. vulnificus biofilm [1] is “about 50 μg/mL”. Moreover, the MBIC80 entry in the data set on V. vulnificus biofilm [2] is reported as “about 16 μg/mL”. The MIC (as a rule, the least concentration at which growth counts as inhibited) in the data set with V. vulnificus [3] came to 0.5 µg/mL. The cell viability entry is on record as “about 70%” in the data set with NIH 3T3 cells and “about 60%” in the data set with HUVEC. Further, the “number of living bacterial cells compared with untreated pig skin” value in the data set with V. vulnificus [4] (50 μg/mL or 100 μg/mL Doxy, 24 hours) was “significantly reduced”. Further, the “mean value of CFU/mL relative to untreated samples (100%)” value in the data set on V. vulnificus [4] (2 days infection, 24 hours treatment, 100 μg/mL Doxy) worked out at 16.42%. Moreover, in the data set on V. vulnificus biofilm [5], the “reduction in CFU compared to no treatment control” value was 2 log reduction.
